The results in this text go back to patent US11006631B2, “Substituted pyrimidinyloxy pyridine derivatives as herbicides” (FMC Corporation, priority 2015, dated 2021).

Common to all, as to type: in vivo
Assay [1] has as its system pigweed (Amaranthus retroflexus). In words: Test A preemergence, pigweed. The following applies: 0 to 100 scale. The procedure, abridged:
(§1)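 Greenhouse pot test, loam + sand. Preemergence = soil spray at sowing; postemergence = foliar spray, 1–2 leaf stage, 2–10 cm tall. ~10 d, then visual injury vs untreated, 0–100.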

The subject of assay [2] is chickweed (common chickweed, Stellaria media). In words: Test C postemergence, chickweed. From the text:
(§2) Seeds of plant species selected from blackgrass (Alopecurus myosuroides), ryegrass, Italian (Italian ryegrass, Lolium multiflorum), wheat (winter wheat, Triticum aestivum), galium (catchweed bedstraw, Galium aparine), corn (Zea mays), crabgrass, large (large crabgrass, Digitaria sanguinalis), foxtail, giant (giant foxtail, Setaria faberii), lambsquarters (Chenopodium album), morningglory (Ipomoea coccinea), nutsedge, yellow (yellow nutsedge, Cyperus esculentus), pigweed (Amaranthus retroflexus), johnsongrass (Sorghum halepense), ragweed (common ragweed, Ambrosia elatior), soybean (Glycine max), barnyardgrass (Echinochloa crus-galli), oilseed rape (Brassica napus), waterhemp (common waterhemp, Amaranthus rudis), chickweed (common chickweed, Stellaria media), oat, wild (wild oat, Avena fatua), kochia (Kochia scoparia), and velvetleaf (Abutilon theophrasti) were planted in pots containing Redi-Earth® planting medium (Scotts Company, 14111 Scottslawn Road, Marysville, Ohio 43041) comprising spaghnum peat moss, vermiculite, wetting agent and starter nutrients and treated with postemergence applications of a test chemical formulated in a non-phytotoxic solvent mixture which included a surfactant. Plants ranged in height from 2 to 18 cm (1- to 4-leaf stage) for postemergence treatments. Treated plants and controls were maintained in a greenhouse for 13 to 15 days, after which time all species were compared to controls and visually evaluated. Plant response ratings, summarized in Table C, are based on a scale of 0 to 100 where 0 is no effect and 100 is complete control. A dash (-) response means no test result.

Assay [3] has as its system barnyardgrass (Echinochloa crus-galli). Put plainly: Test A postemergence, barnyardgrass. The following applies: 0 to 100 scale. The procedure, abridged: as §1
The subject of assay [4] is lambsquarters (Chenopodium album). In words: Test C postemergence, lambsquarters.
From the text: as §2

Regarding `FC(F)c1cc(-c2ncccc2Oc2ncc(Cl)cn2)on1` [Compound 5, 5-chloro-2-[[2-[3-(difluoromethyl)-5-isoxazolyl]-3-pyridinyl]oxy]pyrimidine], the “Plant response rating, Pigweed” value in assay [1] (31 g ai/ha) stood at 80; in assay [1] (125 g ai/ha), 100. The “Plant response rating, Chickweed” value in assay [2] (16 g ai/ha) stood at 35; in assay [2] (31 g ai/ha), 40; in assay [2] (62 g ai/ha) it was 55; in assay [2] (125 g ai/ha), 60. Besides, the “Plant response rating, Barnyardgrass” value in assay [3] (31 g ai/ha) was 0; in assay [3] (125 g ai/ha), 20. Moreover, the “Plant response rating, Lambsquarters” value was 35 in assay [4] (16 g ai/ha), 70 in assay [4] (31 g ai/ha), 55 in assay [4] (62 g ai/ha) and 60 in assay [4] (125 g ai/ha).
